Assay results published in PubChem BioAssay (NCI).
Values joined by “and” are separate entries in the source; they are usually repeats but may differ in a detail not shown here. Equal values may be shown once.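 All cell lines were grown in 96-well plates and treated with compound for 48 hours. GI50 marks 50% less growth. TGI is the concentration that stops growth completely.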

What was measured:
Experiment in all cases: NCI tumour cell line growth inhibition, 48 h; in the data active means GI50 below about 0.43 µM; inactive means the rest
OVCAR-5 ovarian = test system: OVCAR-5 ovarian
SK-MEL-28 melanoma = test system: SK-MEL-28 melanoma
OVCAR-4 ovarian = test system: OVCAR-4 ovarian
SK-MEL-5 melanoma = test system: SK-MEL-5 melanoma
MALME-3M melanoma = test system: MALME-3M melanoma
SN12C renal = test system: SN12C renal
IGROV1 ovarian = test system: IGROV1 ovarian
HT29 colon = test system: HT29 colon
CAKI-1 renal = test system: CAKI-1 renal
HOP-92 NSCLC = test system: HOP-92 NSCLC
HOP-18 NSCLC = test system: HOP-18 NSCLC
SW-620 colon = test system: SW-620 colon
NCI-H226 lung = test system: NCI-H226 lung
RXF-631 renal = test system: RXF-631 renal
RPMI-8226 leukemia = test system: RPMI-8226 leukemia
SF-268 CNS = test system: SF-268 CNS
HCT-116 colon = test system: HCT-116 colon
OVCAR-3 ovarian = test system: OVCAR-3 ovarian
SF-539 CNS = test system: SF-539 CNS
M19-MEL melanoma = test system: M19-MEL melanoma
TK-10 renal = test system: TK-10 renal
DLD-1 colon = test system: DLD-1 colon
LXFL 529 NSCLC = test system: LXFL 529 NSCLC
HCT-15 colon = test system: HCT-15 colon
MOLT-4 leukemia = test system: MOLT-4 leukemia
DMS 273 small cell lung = test system: DMS 273 small cell lung
SF-295 CNS = test system: SF-295 CNS
COLO 205 colon = test system: COLO 205 colon
ACHN renal = test system: ACHN renal
LOX IMVI melanoma = test system: LOX IMVI melanoma
K-562 leukemia = test system: K-562 leukemia
UO-31 renal = test system: UO-31 renal
A498 renal = test system: A498 renal
HOP-62 NSCLC = test system: HOP-62 NSCLC
SNB-19 CNS = test system: SNB-19 CNS
CCRF-CEM leukemia = test system: CCRF-CEM leukemia
RXF 393 renal = test system: RXF 393 renal
EKVX NSCLC = test system: EKVX NSCLC
UACC-257 melanoma = test system: UACC-257 melanoma
786-0 renal = test system: 786-0 renal
M14 melanoma = test system: M14 melanoma
SNB-78 CNS = test system: SNB-78 CNS
HL-60(TB) leukemia = test system: HL-60(TB) leukemia
UACC-62 melanoma = test system: UACC-62 melanoma
KM12 colon = test system: KM12 colon
U251 CNS = test system: U251 CNS
NCI-H460 lung = test system: NCI-H460 lung
OVCAR-8 ovarian = test system: OVCAR-8 ovarian
A549 NSCLC = test system: A549 NSCLC
DMS 114 small cell lung = test system: DMS 114 small cell lung
NCI-H522 lung = test system: NCI-H522 lung
MCF7 breast = test system: MCF7 breast
XF 498 CNS = test system: XF 498 CNS
SR leukemia = test system: SR leukemia
KM20L2 colon = test system: KM20L2 colon
SK-MEL-2 melanoma = test system: SK-MEL-2 melanoma
PC-3 prostate = test system: PC-3 prostate
T-47D breast = test system: T-47D breast
NCI-H23 lung = test system: NCI-H23 lung
HS 578T breast = test system: HS 578T breast
SNB-75 CNS = test system: SNB-75 CNS
NCI/ADR-RES ovarian = test system: NCI/ADR-RES ovarian
SK-OV-3 ovarian = test system: SK-OV-3 ovarian
MDA-MB-231 breast = test system: MDA-MB-231 breast
BT-549 breast = test system: BT-549 breast
HCC-2998 colon = test system: HCC-2998 colon

COc1ccc(C(C#N)Cc2cc(OC)c(OC)c(OC)c2)cc1 (stereo not drawn)
37.3 µM: TGI (SK-MEL-5 melanoma)
54.4 µM: TGI (SF-295 CNS)
> 100000 nM: TGI (OVCAR-3 ovarian) | TGI (SF-539 CNS)
71.9 µM: TGI (NCI-H522 lung)
63.4 µM: TGI (DMS 114 small cell lung)
73.1 µM: TGI (A498 renal)
49300 nM: TGI (COLO 205 colon)
64300 nM: TGI (HL-60(TB) leukemia)
45.2 µM: TGI (RXF 393 renal)
> 100 µM: TGI (OVCAR-5 ovarian) | TGI (SK-MEL-28 melanoma) | TGI (OVCAR-4 ovarian) | TGI (MALME-3M melanoma) | TGI (SN12C renal) | TGI (IGROV1 ovarian) | TGI (HT29 colon) | TGI (CAKI-1 renal) | TGI (HOP-92 NSCLC) | TGI (HOP-18 NSCLC) | TGI (SW-620 colon) | TGI (NCI-H226 lung) | TGI (RXF-631 renal) | TGI (RPMI-8226 leukemia) | TGI (SF-268 CNS) | TGI (HCT-116 colon) | TGI (M19-MEL melanoma) | TGI (TK-10 renal) | TGI (DLD-1 colon) | TGI (LXFL 529 NSCLC) | TGI (HCT-15 colon) | TGI (MOLT-4 leukemia) | TGI (DMS 273 small cell lung) | TGI (ACHN renal) | TGI (LOX IMVI melanoma) | TGI (K-562 leukemia) | TGI (UO-31 renal) | TGI (HOP-62 NSCLC) | TGI (SNB-19 CNS) | TGI (CCRF-CEM leukemia) | TGI (EKVX NSCLC) | TGI (UACC-257 melanoma) | TGI (786-0 renal) | TGI (M14 melanoma) | TGI (SNB-78 CNS) | TGI (UACC-62 melanoma) | TGI (KM12 colon) | TGI (U251 CNS) | TGI (NCI-H460 lung) | TGI (OVCAR-8 ovarian) | TGI (A549 NSCLC)

COc1ccc(/C=C\c2cc(OC)c(OC)c(OC)c2)cc1OC
40.4 µM and 24.4 µM: TGI (HCT-116 colon)
332 nM and 58.2 nM: TGI (HL-60(TB) leukemia)
40.4 µM and 15.7 µM: TGI (K-562 leukemia)
579 nM and 372 nM: TGI (HCC-2998 colon)
294 nM and 283 nM: TGI (SF-539 CNS)
40.4 µM and 83.6 µM: TGI (SNB-19 CNS)
40.4 µM and 18.1 µM: TGI (M14 melanoma)
40.4 µM and 16.7 µM: TGI (NCI-H460 lung)
40.4 µM and 8.55 µM: TGI (HOP-92 NSCLC)
256 nM and 801 nM: TGI (OVCAR-3 ovarian)
40.4 µM and 50.3 µM: TGI (UO-31 renal)
31.4 µM: TGI (HT29 colon)
40.4 µM and 85 µM: TGI (ACHN renal)
12.4 µM and 15.8 µM: TGI (RPMI-8226 leukemia)
28 µM and 14.6 µM: TGI (MOLT-4 leukemia)
171 nM and 662 nM: TGI (COLO 205 colon)
141 nM: TGI (KM20L2 colon)
40.4 µM: TGI (CAKI-1 renal) | TGI (HOP-18 NSCLC) | TGI (RXF-631 renal) | TGI (DLD-1 colon) | TGI (SNB-75 CNS) | TGI (A498 renal) | TGI (SNB-78 CNS)
40.4 µM and > 100 µM: TGI (OVCAR-5 ovarian) | TGI (OVCAR-4 ovarian) | TGI (SW-620 colon) | TGI (SF-268 CNS) | TGI (SK-MEL-2 melanoma) | TGI (TK-10 renal) | TGI (HCT-15 colon) | TGI (NCI-H23 lung) | TGI (SF-295 CNS) | TGI (HOP-62 NSCLC) | TGI (EKVX NSCLC) | TGI (UACC-257 melanoma) | TGI (786-0 renal) | TGI (UACC-62 melanoma) | TGI (A549 NSCLC)
40.4 µM and 16.8 µM: TGI (SK-MEL-5 melanoma)
91.6 µM: TGI (MALME-3M melanoma)
40.4 µM and 21.5 µM: TGI (IGROV1 ovarian)
> 100 µM: TGI (SK-MEL-28 melanoma) | TGI (MCF7 breast) | TGI (PC-3 prostate) | TGI (T-47D breast) | TGI (NCI/ADR-RES ovarian) | TGI (SK-OV-3 ovarian) | TGI (MDA-MB-231 breast) | TGI (BT-549 breast) | TGI (RXF 393 renal)
40.4 µM and 17.7 µM: TGI (LOX IMVI melanoma)
401 nM: TGI (XF 498 CNS)
68 µM: TGI (HS 578T breast)
277 nM and 61.2 nM: TGI (SR leukemia)
inactive: GI50 (OVCAR-4 ovarian) 11.6 µM | GI50 (SN12C renal) 940 nM | GI50 (TK-10 renal) 23.5 µM | GI50 (NCI-H23 lung) 447 nM | GI50 (ACHN renal) 763 nM | GI50 (UO-31 renal) 805 nM | GI50 (HOP-62 NSCLC) 580 nM | GI50 (UACC-257 melanoma) 6.09 µM | GI50 (786-0 renal) 616 nM
3.14 µM: TGI (LXFL 529 NSCLC)
active: GI50 (OVCAR-5 ovarian) 324 nM | GI50 (SK-MEL-5 melanoma) 51.4 nM | GI50 (IGROV1 ovarian) 53.7 nM | GI50 (HT29 colon) 43 nM | GI50 (HOP-92 NSCLC) 47.3 nM | GI50 (SR leukemia) 20.4 nM | GI50 (SW-620 colon) 47.2 nM | GI50 (NCI-H226 lung) 297 nM | GI50 (RPMI-8226 leukemia) 224 nM | GI50 (SF-268 CNS) 214 nM | GI50 (SK-MEL-2 melanoma) 121 nM | GI50 (HCT-116 colon) 48.2 nM | GI50 (OVCAR-3 ovarian) 54.3 nM | GI50 (SF-539 CNS) 60.5 nM | GI50 (HCT-15 colon) 59.5 nM | GI50 (SF-295 CNS) 67.2 nM | GI50 (COLO 205 colon) 110 nM | GI50 (LOX IMVI melanoma) 82.9 nM | GI50 (K-562 leukemia) 32.9 nM | GI50 (SK-OV-3 ovarian) 187 nM | GI50 (SNB-19 CNS) 320 nM | GI50 (CCRF-CEM leukemia) 79.1 nM | GI50 (EKVX NSCLC) 333 nM | GI50 (M14 melanoma) 60.3 nM | GI50 (HL-60(TB) leukemia) 23.1 nM | GI50 (UACC-62 melanoma) 36 nM | GI50 (KM12 colon) 51.3 nM | GI50 (U251 CNS) 97.5 nM | GI50 (NCI-H460 lung) 181 nM | GI50 (OVCAR-8 ovarian) 275 nM | GI50 (A549 NSCLC) 211 nM | GI50 (NCI-H522 lung) 154 nM
